Patent US8193235B2, “Compositions and methods for establishing and maintaining stem cells in an undifferentiated state” (University of Kansas, priority 2009, dated 2012)
“Also recorded” adds a separate entry of the source.

Columns and labels:
C57BL/6 blastocysts = assay: Chimera generation and germ-line transmission by blastocyst injection; assay type: in vivo, mouse
Experimental: Chimera Generation and Germ-Line Transmission. Prepubertal (3 weeks of age) donor C57BL/6 female mice (Jackson Laboratory, Bar Harbor, Me.) were superovulated, mated overnight to intact C57BL/6 stud males and euthanized by cervical dislocation on day 3.5. Uteri were collected after euthanasia and flushed with M2 medium (Millipore, Bilerica, Mass.) for the collection of blastocysts. Eight to ten ES or iPS cells were injected into the blastocoel of each blastocyst. After injection, the blastocysts were surgically transferred into recipient females that were pseudopregnant by mating with vasectomized males. Recipient females carried the pups to term and nursed until weaning at three weeks. High-level chimeras, generated from newly derived ES cells, were mated with C57BL/6 adult mice to test for germline transmission.

Stat3−/− ES cells = Stat3−/− ES cells in serum-free N2B27 medium; assay type: cell-based, mouse
Experimental: Stat3^−/− ES Cells. Passage 12 Stat3^−/− ES cells were maintained on N2B27 medium with 1 μM PD0325901 and 3 μM CHIR99021 and passaged every 3-4 days. For studies involving Gö6983, around 1-2×10^4 cells were plated on 6-well plates having N2B27 medium with or without 5 μM Gö6983 and analyzed for the expression of pluripotency markers.

Akt = Akt phosphorylation in mESCs; assay type: cell-based, mouse
Experimental: (§1) E14 ES Cell Cultures. Cells were grown in ES-IMDM media (Lonza, Walkersville, Md.) in a feeder-free condition. ES-IMDM was supplemented with 15% serum, 10^5 U/100 ml of LIF (ESGRO, Millipore, Calif.) and 0.0124% monothioglycerol (MTG; Sigma Aldrich). Cells were grown for 3-5 days with change of medium every day. For inducing differentiation in monolayer culture and to determine the effect of Gö6983 in preventing differentiation, E14 cells were cultured on gelatin-coated plastics for 8 days without LIF. Details of experiments performed at clonal-density are described herein. To maintain E14 cells with Gö6983, serum supplemented ES-IMDM was used in the presence of 5 μM Gö6983 and was passed after every 3-5 days. For all assays involving elucidation of different signaling mechanism responsible for maintenance of pluripotency, cells from a ˜70% confluent ES culture plate were washed two times with 1× phosphate-buffered saline (PBS), trypsinized and plated on a 6-well tissue culture plate and treated with or without LIF or Gö6983 or different inhibitors for ˜10 hours followed by preparation of protein lysates and RNA. The PKCζ knocked-down E14 cells that were generated in this study were maintained in serum supplemented ES-IMDM on gelatin-coated plates in the absence of Gö6983 or LIF or any other inhibitor and passed after 3-5 days. […]

β-catenin = assay: Cytosolic β-catenin stabilization assay; assay type: cell-based, mouse; conditions: mESCs
Experimental: Cytosolic β-Catenin Stabilization Assay. ES cells were treated with Wnt3A-conditioned medium or Gö6983 or LIF for 10 hours, and lysed hypotonically on ice with 1× TE (pH 7.4) with protease inhibitors. Lysates were centrifuged at 100,000 g at 4° C. for 45 minutes to collect and analyze cytosolic fractions.

c-Myc = assay: GSK-3β-mediated phosphorylation of c-Myc at T58; assay type: cell-based, mouse; conditions: Gö6983 alone
ERK1/2 = ERK1/2 phosphorylation in ES cells; assay type: cell-based, mouse; conditions: Gö6983 alone
Experimental: as §1

p90Rsk1 (Rsk1) = assay: Phosphorylation of p90Rsk1; assay type: cell-based, mouse; conditions: Gö6983 alone
Experimental: Western Blot Analysis. Whole cell lysates were prepared in SDS-gel loading buffer and resolved by 10% PAGE. The antibodies used for this study included β-actin Clone AC-15 from Sigma; p-STAT3 (Tyr705), p-p44/42 MAPK (tyr202/tyr204), p44/42 MAPK, GSK3β, Phospho Akt (Ser473), Akt, p-NFκβ p65 (Ser536), c-Myc, p-c-Myc (Thr58/Ser62), p-p90RSK (Thr359/Ser363), RSK1, Suz12 (D39F6), and Ezh2 (AC22) from Cell Signaling Technology; STAT3 (C-20), Oct-4 (C-10), Nanog (M-149), PKC α (C-20), PKC βI (C-16), PKC βII (C-18), PKC γ (C-19), PKC δ (C-20), PKC ζ (c-20), p-PKC ζ (Thr 410)-R, p-NFκβ p65 (ser311), and RelA (p65) from Santa Cruz Biotechnology; p-LGL1/LGL2 (S650/S654), SSEA4and H3K4Me3 from Abcam; LGL2 (M06), clone 4G2 from Abnova; β-Catenin from BD Transduction Laboratories, and H3K27Me3 and H3K9Me3 from Millipore.

129/Sv MEFs = assay: Generation of iPS cells from MEFs; assay type: cell-based, mouse
Experimental: Generation of iPS Cells. iPSCs were derived using lentiviral vectors (STEMGENT), expressing four mouse transcription factors (Oct4, Sox2, Klf4 […] c-Myc) under the control of the doxycycline (Dox)-inducible tetO operator. 129/Sv MEFs were infected with viral mix following manufacturer's protocol. Twenty hours post-transduction, cells were reseeded in ES cell growth medium with either LIF or Gö6983 at a density of 5×10^4 cells per well of a 6-well plate and treated with Dox (2 μg/ml) for 48 hours. To determine the phenotype of the iPS colonies, expression of two pluripotency markers, Nanog and Rex-1, were analyzed. For further analysis, each visible iPS colony was manually picked, trypsinized, cells were re-plated at clonal and higher density in medium with Gö6983 and the expression of pluripotent markers were confirmed by RT-PCR and immunofluorescence. For chimera generation, cells from two different iPS clones were propagated at clonal density with Gö6983, expanded for four passages and were injected into blastocysts.

PKC μ = PKC μ (Homo sapiens, UniProt Q15139); conditions: higher concentrations; cited from earlier work
endothelial cells = conditions: Dutta, et al. (2008); cited from earlier work

PKC μ, sequence (Q15139 whole entry): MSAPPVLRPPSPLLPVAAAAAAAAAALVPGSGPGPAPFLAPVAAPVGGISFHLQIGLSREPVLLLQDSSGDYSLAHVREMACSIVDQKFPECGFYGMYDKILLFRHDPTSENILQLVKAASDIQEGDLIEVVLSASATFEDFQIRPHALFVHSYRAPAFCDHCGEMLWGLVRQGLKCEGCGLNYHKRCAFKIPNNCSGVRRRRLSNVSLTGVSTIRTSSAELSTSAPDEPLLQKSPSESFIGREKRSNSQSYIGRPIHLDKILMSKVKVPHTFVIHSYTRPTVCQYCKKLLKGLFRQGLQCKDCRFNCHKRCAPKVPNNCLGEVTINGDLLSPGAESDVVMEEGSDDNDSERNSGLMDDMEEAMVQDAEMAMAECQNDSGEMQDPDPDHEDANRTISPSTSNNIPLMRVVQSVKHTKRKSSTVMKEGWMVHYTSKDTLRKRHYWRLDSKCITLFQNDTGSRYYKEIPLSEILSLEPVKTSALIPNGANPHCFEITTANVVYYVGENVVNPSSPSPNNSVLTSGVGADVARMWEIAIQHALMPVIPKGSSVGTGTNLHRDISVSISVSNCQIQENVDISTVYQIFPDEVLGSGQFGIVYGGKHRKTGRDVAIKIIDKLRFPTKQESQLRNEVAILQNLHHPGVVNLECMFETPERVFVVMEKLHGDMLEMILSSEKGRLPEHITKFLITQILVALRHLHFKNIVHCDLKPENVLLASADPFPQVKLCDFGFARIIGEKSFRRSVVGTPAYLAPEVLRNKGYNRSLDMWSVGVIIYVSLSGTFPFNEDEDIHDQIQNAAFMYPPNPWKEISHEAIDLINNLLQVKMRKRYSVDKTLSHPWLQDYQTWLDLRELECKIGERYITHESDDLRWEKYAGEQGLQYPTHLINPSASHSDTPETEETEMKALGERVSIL

SMILES: COc1ccc2c(c1)c(C1=C(c3c[nH]c4ccccc34)C(=O)NC1=O)cn2CCCN(C)C [Gö6983, 3-[1-[3-(dimethylamino)propyl]5-methoxy-1H-indol-3-yl]-4-(1H-indol-3-yl)-1H-pyrrole-2,5-dione]
- chimera generation from E14 ES cells maintained with Gö6983 (C57BL/6 blastocysts; 7 passages with Gö6983, injected into C57Bl/6 blastocysts): yielded multiple chimeric mice; also recorded: efficiently generated chimeras
- Chimera # (C57BL/6 blastocysts; E14 cells, 59 blastocysts injected, 7 pups): 5
- # of Chimera showing Germline Transmission (C57BL/6 blastocysts; ES 1 (line derived with Gö6983)): 3
- Chimera # (C57BL/6 blastocysts; ES 1 (line derived with Gö6983), 45 blastocysts injected, 15 pups): 5
- # of Chimera showing Germline Transmission (C57BL/6 blastocysts; ES 2 (line derived with Gö6983)): 2
- Chimera # (C57BL/6 blastocysts; ES 2 (line derived with Gö6983), 38 blastocysts injected, 6 pups): 2
- Chimera # (C57BL/6 blastocysts; iPSC 1, 18 blastocysts injected, 5 pups): 3
- Chimera # (C57BL/6 blastocysts; iPSC 2, 30 blastocysts injected, 6 pups): 3
- chimera generation from Gö6983-derived iPS cells (C57BL/6 blastocysts; injected into blastocysts): generate chimeric mice
- chimera and germline contribution of Gö6983-derived ES cells (C57BL/6 blastocysts; two lines after six passages, chimeras crossed with C57BL/6 adults): successfully generated adult chimera, which produced germline offsprings
- differentiation of Stat3−/− ES cells (Stat3−/− ES cells): efficiently prevented differentiation
- Akt phosphorylation (Akt): not associated with Akt phosphorylation
- β-catenin stabilization (β-catenin): did not stabilize
- GSK-3β-mediated phosphorylation of c-Myc at T58 residue (c-Myc): did not inhibit
- ERK1/2 phosphorylation (ERK1/2): did not inhibit
- phosphorylation of Rsk1 (p90Rsk1 (Rsk1)): not inhibited
- efficiency of obtaining matured iPSC colonies compared to LIF (129/Sv MEFs; FIG. 4B): three fold higher
- time to appearance of ES cell-like iPSC colonies (129/Sv MEFs; MEFs with Oct4, Sox2, KLF4, cMyc): 12 days
- rate of obtaining iPSC colonies compared to LIF (129/Sv MEFs; colonies defined by Nanog and Rex-1, FIG. 4A): significantly faster rate
- propagation of iPSCs at clonal density (129/Sv MEFs; with Gö6983): readily propagated at clonal density
- concentration that inhibits isoform PKC μ (PKC μ): > 20 µM
- angiogenic signal-induced VEGFR1 expression in endothelial cells (endothelial cells): inhibits angiogenic signal-induced VEGFR1 expression
